Counter-ions that a name gives are not always drawn.
Experiments:
[1] = Dynamic vapor sorption (hygroscopicity); assay type: physicochemical; conditions: relative humidity of up to 80%, dynamic vapor sorption isotherm
Description: Dynamic Vapor Sorption (DVS) data were collected with a SMS DVS Intrinsic from Surface Measurement Systems.

[2] = Solid form stability at temperature and relative humidity; assay type: physicochemical; conditions: temperatures up to 40° C. and relative humidity of up to 75%
[3] = test system: panel of 10 BRD representing the various branches of the bromodomain tree; test: AlphaScreen panel of 10 bromodomains; assay type: binding; conditions: number of bromodomains out of 10

Row | water uptake [1] | stability of solid form [2] | Structure (SMILES) | activity against 10 bromodomains surveyed [3]
1 | 2.1% | stable for at least two weeks | COC(=O)N1c2ccc3c(nc([C@H](O)c4cc(F)ccc4OC)n3[C@@H]3CCC[C@@H](C(=O)O)C3)c2CC[C@@H]1C [type B p-toluenesulfonic acid addition salt] [(1R,3R)-3-((S)-2-((R)-(5-fluoro-2-methoxyphenyl)(hydroxy)methyl)-6-(methoxycarbonyl)-7-methyl-6,7,8,9-tetrahydro-3H-imidazo[4,5-f]quinolin-3-yl) cyclohexane-1-carboxylic acid] | –
2 | – | – | COC(=O)N1c2ccc3c(nc([C@H](O)c4cc(F)ccc4OC)n3[C@@H]3CCC[C@@H](C(=O)O)C3)c2CC[C@@H]1C [Compound 1, (1R,3R)-3-[(7S)-2-[(R)-(5-fluoro-2-methoxyphenyl)(hydroxy)methyl]-6-(methoxycarbonyl)-7-methyl-3H,6H,7H,8H,9H-imidazo[4,5-f]quinolin-3-yl]cyclohexane-1-carboxylic acid] | inactive against 8
3 | 6.3% | stable for at least two weeks | COC(=O)N1c2ccc3c(nc([C@H](O)c4cc(F)ccc4OC)n3[C@@H]3CCC[C@@H](C(=O)O)C3)c2CC[C@@H]1C [HCl type A salt, (1R,3R)-3-((S)-2-((R)-(5-fluoro-2-methoxyphenyl)(hydroxy)methyl)-6-(methoxycarbonyl)-7-methyl-6,7,8,9-tetrahydro-3H-imidazo[4,5-f]quinolin-3-yl) cyclohexane-1-carboxylic acid] | –
